From publication PMC6883931 (Frontiers in Molecular Neuroscience, 2019)
Values joined by “and” are separate entries in the source; they are usually repeats but may differ in a detail not shown here. Equal entries are not always repeated. Where two headings read alike, the source gives them in different places.

Legend:
[1] = molecular target: T1, recombinant α3L GlyRs expressed in HEK293 cells (Homo sapiens, UniProt O75311); test: Whole-cell patch-clamp recordings of GlyR-transfected HEK293 cells; type: cell-based; settings: for EC50 / IC50: n = 7 cells; for EC50: mean ± SEM, read-out: EC50 of glycine-induced currents; for IC50: IC50 of strychnine inhibition; for IC50 / Ki: 60 μM glycine; for Ki: Ki of strychnine (Cheng-Prusoff)
T1 construct: expressed in transfected cells; host or cells: HEK293
Description: Current responses from GlyR-transfected HEK293 cells were measured at room temperature (21–23°C) at a holding potential of −50 mV using a HEKA EPC10 amplifier (HEKA Electronics, Lambrecht, Germany) controlled by Pulse software (HEKA Electronics). Recording pipettes were pulled from borosilicate glass (World Precision Instruments, Berlin, Germany) using a Sutter P-97 horizontal puller (Sutter, Novato, CA, USA). Solutions were applied using an Octaflow system (NPI electronics, Tamm, Germany). The external buffer consisted of 135 mM NaCl, 5.5 mM KCl, 2 mM CaCl2, 1.0 mM MgCl2, and 10 mM Hepes (pH adjusted to 7.4 with NaOH); the internal buffer was 140 mM CsCl, 1.0 mM CaCl2, 2.0 mM MgCl2, 5.0 mM EGTA, and 10 mM Hepes (pH adjusted to 7.2 with CsOH). […] Dose-response data were fitted to the Hill equation (see Supplementary Material) to determine EC50 and IC50.
Ki was calculated using the Cheng-Prusoff correction, significance was tested using one-way ANOVA with p < 0.05 considered significant. […] All data are means ± SEM; significance levels (relative to control) are indicated: *p ≤ 0.5; **p ≤ 0.01; ns, not significant.
Cell Culture and Transfection – HEK293 cells were grown in 10 cm tissue culture Petri dishes in Eagle minimal essential medium (EMEM) (Lonza, Basel, Switzerland) supplemented with 10% FBS (Invitrogen, Karlsruhe, Germany) and penicillin/streptomycin (Sigma-Aldrich, Munich, Germany) at 5% CO2 and 37 °C in a water saturated atmosphere. For electrophysiological experiments, cells were plated on acetone treated glass coverslips in 24 well plates. Transfection was performed 1 day after cell passage using polyethyleneimine (PEI) (Sigma-Aldrich, Munich, Germany): 0.75 µg of receptor DNA and 1.0 µg of green fluorescent protein DNA were mixed in 50 µl EMEM; in a second Eppendorf tube, 3.5 µl PEI was added to 50 µl EMEM, mixed and combined with the DNA solution. After 20 min incubation at room temperature, the transfection solution was added dropwise to the cells. Measurements were performed 1-3 days after transfection.
Electrophysiological Recordings and Data Analysis – Current responses from GlyR-transfected HEK293 cells were measured at room temperature (21-23°C) at a holding potential of -50 mV. Whole-cell recordings were performed using a HEKA EPC10 amplifier (HEKA Electronics, Lambrecht, Germany) controlled by Pulse software (HEKA Electronics). Recording pipettes were pulled from borosilicate glass (World Precision Instruments, Berlin, Germany) using a Sutter P-97 horizontal puller (Sutter, Novato, CA).

Male Swiss Webster mice [2] = test: Hotplate test (55°C), latency until pain-related reaction; type: in vivo
Description: (§1) See Supplementary Material S1 for experimental details. On the day of the experiment, mice were weighed and then fasted for 5–6 h to reduce variability in initial blood glucose levels (BGL). Mice had been accustomed to the test apparatus for 2–3 h on two separate days before experiments. Two hours before testing, mice were acclimatized to the measuring apparatus. For hotplate tests, mice were accustomed to the testing condition by placing them one by one on a switched off hotplate at room temperature for the set cut off time of 30 s. One hour before testing, baseline measurements for touch sensitivity were recorded. For both experiments, mice were then injected according to protocol. Blood glucose level was measured before and after injections (Figure 3A).
The investigator performing the measurements was blinded to treatment groups and to the blood glucose readings.

Male Swiss Webster mice [3] = test: Tactile sensitivity (von Frey) test, paw withdrawal threshold; type: in vivo; settings: for PWT ratio: individual mice and avg
Description: as §1
Mice were divided into four experimental groups (see main text). The investigator performing the measurements was blinded to treatment groups and to the blood glucose readings. All mice were measured for their Paw withdrawal threshold (PWT) using von Frey filaments on at least one occasion before the testing day to reduce the stress or surprise from the experiment. We used the up-and-down method to determine pain withdrawal thresholds (PWT; Bradman et al., [2015]) with 8 mN as the starting value (see Supplementary Material for details). Baseline PWT values for each mouse were determined before treatment. […] Measurements were limited to the time window of 5 min after the second injection (strychnine or vehicle) due to the fast elimination kinetics of low doses of strychnine.
• (i) Baseline PWT determination for each mouse, 30 min prior to the experiment; • (ii) at time t = 0, mice were injected with glucose (2 g/kg) or vehicle • (iii) at t = 30 min, mice were injected with strychnine (0.2 or 0.5 mg/kg) or vehicle; • (iv) at t = 35 min pain-related behavior was assessed.
Von Frey Experiment – The investigator performing the measurements was blinded to treatment groups and to the blood glucose readings. All mice were measured for their paw withdrawal threshold using the Von Frey filaments on at least one occasion before the testing day. That was done to reduce the stress or surprise that might result from exposure to new conditions on the day of the experiment. A baseline reading for each mouse is also taken before the test with the consideration to leave at least one-day gab between baseline and experiment measurement to minimize any effect of repetitive measurement. […]
We used the up-and-down method to determine pain withdrawal thresholds (PWT) (Bradman et al., 2015). To assess the starting force, baseline 50% PWT was measured in five naïve mice (20-35 g) by application of von Frey hairs in an ascending order of their applied force. […] Baseline PWT values for each mouse were determined before treatment. […]

GlyR = system: GlyR; parameters: method as in Breitinger et al., 2016; settings: ref Breitinger et al., 2016, cited from earlier work; for EC50: read-out: EC50 for augmentation of glycine-mediated responses; for on-rate of current enhancement: saturating concentrations
[4] = system: recombinant α1, α1-β, and α3 GlyRs; parameters: method as in Breitinger et al., 2015; Breitinger and Breitinger, 2016; settings: HEK293 cells, ref Breitinger et al., 2015, 2016; cited from earlier work
mice = settings: cited from earlier work; for LD50: mice, Patocka, 2009

T1 sequence (O75311 34-464): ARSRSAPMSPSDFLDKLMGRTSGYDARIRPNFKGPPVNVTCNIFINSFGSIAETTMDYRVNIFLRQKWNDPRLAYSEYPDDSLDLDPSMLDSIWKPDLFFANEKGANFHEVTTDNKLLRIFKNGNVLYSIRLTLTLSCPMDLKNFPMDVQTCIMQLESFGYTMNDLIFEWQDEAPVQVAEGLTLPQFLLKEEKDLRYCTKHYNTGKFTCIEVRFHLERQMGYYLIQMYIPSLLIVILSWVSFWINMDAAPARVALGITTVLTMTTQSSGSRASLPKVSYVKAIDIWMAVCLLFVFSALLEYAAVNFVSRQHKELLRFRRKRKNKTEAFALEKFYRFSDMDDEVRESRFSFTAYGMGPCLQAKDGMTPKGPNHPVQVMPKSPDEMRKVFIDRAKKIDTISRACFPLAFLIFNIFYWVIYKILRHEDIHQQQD

Structure (SMILES): NCC(=O)O [Glycine, glycine]
- EC50 ([1]; after overnight preincubation with 50 mM glucose): 49.9 ± 5.3 µM
- EC50 ([1]; control, no glucose preincubation (5.5 mM glucose in medium)): 106 ± 16 µM

Structure (SMILES): OC[C@H]1OC(O)[C@H](O)[C@@H](O)[C@@H]1O (stereo partly shown) [Glucose, glucose]
- average normalized latency time (Male Swiss Webster mice [2]; glucose 2 g/kg IP, no strychnine, normalized to baseline, mean ± SEM): 1.79 ± 0.18
- normalized response time (Male Swiss Webster mice [2]; glucose 2 g/kg pretreatment followed by 0.2 mg/kg strychnine): 1.72 ± 0.44
- normalized response time (Male Swiss Webster mice [2]; glucose 2 g/kg prior to 0.5 mg/kg strychnine challenge): 0.74 ± 0.15
- time after which effects on pain-related behavior were fully developed (Male Swiss Webster mice [3]; glucose 2 g/kg IP): 20 min
- EC50 (GlyR): 6000 to 7000 µM
- on-rate of current enhancement (GlyR): < 0.5 h
- reduction of EC50 value [4]: 2–4 fold

Structure (SMILES): O=C1C[C@@H]2OCC=C3CN4CC[C@]56c7ccccc7N1[C@H]5[C@H]2[C@H]3C[C@H]46 [Strychnine, strychnine]
- normalized time to response (Male Swiss Webster mice [2]; strychnine 0.2 mg/kg IP, no glucose): 0.63 ± 0.10
- normalized response time (Male Swiss Webster mice [2]; strychnine 0.5 mg/kg IP, no glucose): 0.30 ± 0.07
- PWT ratio (Male Swiss Webster mice [3]; no glucose – Strychnine 0.2 mg/kg): 0.98 and 0.73 and 0.48 and 0.62 and 0.87 and 0.24 and 0.76 and 0.15
- PWT ratio (Male Swiss Webster mice [3]; no glucose – Strychnine 0.5 mg/kg): 0.17 and 1.46 and 0.19 and 0.30 and 0.14
- time after which notable effects on pain sensitivity were gone (Male Swiss Webster mice [3]; sub-lethal amounts of strychnine, IP): > 5 min
- lethality (mice; 2 mg/kg IP, Swiss Webster mice, ref Maher et al., 2014): 85%
- LD50 (mice; intraperitoneal (IP) injection, ref Prasad et al., 1981): 0.98 mg/kg
- LD50 (mice; oral administration, ref Setnikar et al., 1960): 2 mg/kg
- IC50 ([1]; absence of glucose): 0.0307 ± 0.0028 µM
- IC50 ([1]; cells preincubated with 50 mM glucose): 0.0462 ± 0.0058 µM
- Ki ([1]; cells pretreated with 50 mM glucose): 0.0198 ± 0.0016 µM
- Ki ([1]; control cells): 0.0188 ± 0.0014 µM

Structure (SMILES): OC[C@H]1O[C@@H](O[C@H]2[C@H](O)[C@@H](O)C(O)O[C@@H]2CO)[C@H](O)[C@@H](O)[C@H]1O (mixture of isomers) [Lactose, lactose]
- on-rate of current enhancement (GlyR): ~ 1.5 h

Structure (SMILES): O=C(CO)[C@@H](O)[C@H](O)[C@H](O)CO [Fructose, fructose]
- EC50 (GlyR): 6000 to 7000 µM
- on-rate of current enhancement (GlyR): < 0.5 h

Structure (SMILES): OC[C@H]1O[C@@](CO)(O[C@H]2O[C@H](CO)[C@@H](O)[C@H](O)[C@H]2O)[C@@H](O)[C@@H]1O [Sucrose, sucrose]
- on-rate of current enhancement (GlyR): ~ 1.5 h
